What was measured:
A3 adenosine receptor = biological target: T1, A3 adenosine receptor (Homo sapiens, UniProt P0DMS8); test: Radioligand binding assay
T1 construct: host or cells: CHO-K1
T1 sequence (P0DMS8 1-318): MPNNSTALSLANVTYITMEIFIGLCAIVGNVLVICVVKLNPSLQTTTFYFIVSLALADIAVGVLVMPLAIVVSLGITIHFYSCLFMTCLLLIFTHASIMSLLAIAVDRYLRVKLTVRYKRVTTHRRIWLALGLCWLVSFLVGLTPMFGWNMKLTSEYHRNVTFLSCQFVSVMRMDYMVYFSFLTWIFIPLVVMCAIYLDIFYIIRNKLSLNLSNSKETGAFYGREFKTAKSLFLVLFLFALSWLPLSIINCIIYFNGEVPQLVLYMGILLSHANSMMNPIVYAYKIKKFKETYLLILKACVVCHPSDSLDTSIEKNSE

[1] = test system: Adrenergic α 1, Non-Selective; test: Radioligand binding panel (Table S1); parameters: species or system rat; conditions: 10 μM T1-11, n 2
Adrenergic α 1B = biological target: T2, Adrenergic α 1B (Rattus norvegicus, UniProt P15823); test: Radioligand binding panel (Table S1); conditions: 10 μM T1-11, n 2
T2 construct: purchased MDS Pharma Services Taiwan

Adrenergic β 1 = biological target: T3, Adrenergic β 1 (Homo sapiens, UniProt P08588); test: Radioligand binding panel (Table S1); conditions: 10 μM T1-11, n 2
T3 construct: purchased MDS Pharma Services Taiwan

Bombesin BB3 = biological target: T4, Bombesin BB3 (Homo sapiens, UniProt P32247); test: Radioligand binding panel (Table S1); conditions: 10 μM T1-11, n 2
T4 construct: purchased MDS Pharma Services Taiwan

Bradykinin B1 = biological target: T5, Bradykinin B1 (Homo sapiens, UniProt P46663); test: Radioligand binding panel (Table S1); conditions: 10 μM T1-11, n 2
T5 construct: purchased MDS Pharma Services Taiwan

[2] = biological target: T6, G Protein-Coupled Receptor, GPR8 (Homo sapiens, UniProt P48146); test: Radioligand binding panel (Table S1); conditions: 10 μM T1-11, n 2
T6 construct: purchased MDS Pharma Services Taiwan

[3] = test system: GABAA, Benzodiazepine, Central, Flunitrazepam; test: Radioligand binding panel (Table S1); parameters: species or system rat; conditions: 10 μM T1-11, n 2
[4] = test system: GABAA, Benzodiazepine, Central, Ro-15-1788; test: Radioligand binding panel (Table S1); parameters: species or system rat; conditions: 10 μM T1-11, n 2
GABAB1B = biological target: T7, GABAB1B (Homo sapiens, UniProt Q9UBS5); test: Radioligand binding panel (Table S1); conditions: 10 μM T1-11, n 2
T7 construct: purchased MDS Pharma Services Taiwan

Histamine H1 = biological target: T8, Histamine H1 (Homo sapiens, UniProt P35367); test: Radioligand binding panel (Table S1); conditions: 10 μM T1-11, n 2
T8 construct: purchased MDS Pharma Services Taiwan

Lipoxygenase 15-LO = biological target: T9, Lipoxygenase 15-LO (Oryctolagus cuniculus, UniProt P12530); test: Radioligand binding panel (Table S1); parameters: species or system rabbit; conditions: 10 μM T1-11, n 2
T9 construct: purchased MDS Pharma Services Taiwan

Melanocortin MC1 = biological target: T10, Melanocortin MC1 (Homo sapiens, UniProt Q01726); test: Radioligand binding panel (Table S1); conditions: 10 μM T1-11, n 2
T10 construct: purchased MDS Pharma Services Taiwan

Melanocortin MC3 = biological target: T11, Melanocortin MC3 (Homo sapiens, UniProt P41968); test: Radioligand binding panel (Table S1); conditions: 10 μM T1-11, n 2
T11 construct: purchased MDS Pharma Services Taiwan

[5] = test system: Muscarinic, Non-Selective, Central; test: Radioligand binding panel (Table S1); parameters: species or system rat; conditions: 10 μM T1-11, n 2
Phorbol Ester = test: Radioligand binding panel (Table S1); parameters: species or system mouse; conditions: 10 μM T1-11, n 2
Phosphodiesterase PDE1 = test: Radioligand binding panel (Table S1); parameters: species or system human; conditions: 10 μM T1-11, n 2
Potassium Channel [KA] = test: Radioligand binding panel (Table S1); parameters: species or system rat; conditions: 10 μM T1-11, n 2
Progesterone PR-B = biological target: T12, Progesterone PR-B (Homo sapiens, UniProt P06401); test: Radioligand binding panel (Table S1); conditions: 10 μM T1-11, n 2
T12 construct: purchased MDS Pharma Services Taiwan

Somatostatin sst5 = biological target: T13, Somatostatin sst5 (Homo sapiens, UniProt P35346); test: Radioligand binding panel (Table S1); conditions: 10 μM T1-11, n 2
T13 construct: purchased MDS Pharma Services Taiwan

[6] = test system: Thyrotropin Releasing Hormone (TRH); test: Radioligand binding panel (Table S1); parameters: species or system rat; conditions: 10 μM T1-11, n 2
R6/2 mice = test: Rotarod performance of R6/2 mice; assay type: in vivo
Description: Male R6/2 mice and littermate controls were originally obtained from Jackson Laboratories (Bar Harbor, ME, USA), and mated to female control mice (B6CBAFI/J). Offspring were identified by a polymerase chain reaction (PCR) genotyping technique of genomic DNA extracted from tail tissues using primers located in the transgene (5′-[…]-3′ and 5′-[…]- AGGAG-3′) to ensure that the number of CAG repeats remained approximately 150. In total, 211 R6/2 transgenic mice were used in this study. Animals were housed at the Institute of Biomedical Sciences Animal Care Facility under a 12-h light/dark cycle. Body weights of mice were recorded once daily. Animal experiments were performed under protocols approved by the Academia Sinica Institutional Animal Care and Utilization Committee, Taipei, Taiwan.
Motor coordination was assessed using a rotarod apparatus (UGO BASILE, Comerio, Italy) at a constant speed (12 rpm) over the period of 2 min [75]. All mice were trained for 2 days at the age of 4 weeks to allow them to become acquainted with the rotarod apparatus. Animals were then tested three times per week from the ages of 4∼12 weeks. For each test, animals were placed in the apparatus before initiation of rotation. Latency to falling was automatically recorded. Each mouse was given three trials for a maximum of 2 min for each trial.

BDNF = test: Cortical BDNF transcript, quantitative RT-PCR; assay type: in vivo; conditions: R6/2 mice, 0.05 mg/ml in drinking water
Protocol: Total RNA was isolated from the cortex of the indicated mice using the TriReagent kit (Molecular Research Center, Cincinnati, OH, USA), treated with RNase-free DNase (RQ1; Promega) to remove potential contamination by genomic DNA, and transcribed into complementary (c)DNA using Superscript* II reverse transcriptase. A real-time quantitative PCR was performed using a TaqMan kit (PE Applied Biosystems, Foster City, CA, USA) on a TaqMan ABI 7700 Sequence Detection System (PE Applied Biosystems) using heat-activated TaqDNA polymerase (Amplitaq Gold; PE Applied Biosystems). The PCR mixtures were incubated at 50°C for 2 min and 95°C for 10 min, and then 40 PCR cycles were conducted (95°C for 15 s and 65°C for 1 min). The sequences of primers are listed below: for BDNF (the target gene), 5′-[…]-3′ and 5′-[…]-3′; and for GAPDH (the reference gene), 5′[…]-3′ and 5′-[…]-3′. Independent reverse-transcription PCRs were performed using the same cDNA for both the indicated target gene and reference gene (GAPDH). […] Data were analyzed using ABI 7700 operating software to determine the threshold cycle (CT) above the background for each reaction. The relative transcript amount of the target gene, which was calculated using standard curves of serial RNA dilutions, was normalized to that of GAPDH of the same RNA.

[7] = CHO-K1 membranes, 3H-AB-MECA 0.5 nM

T12 sequence (P06401 whole entry): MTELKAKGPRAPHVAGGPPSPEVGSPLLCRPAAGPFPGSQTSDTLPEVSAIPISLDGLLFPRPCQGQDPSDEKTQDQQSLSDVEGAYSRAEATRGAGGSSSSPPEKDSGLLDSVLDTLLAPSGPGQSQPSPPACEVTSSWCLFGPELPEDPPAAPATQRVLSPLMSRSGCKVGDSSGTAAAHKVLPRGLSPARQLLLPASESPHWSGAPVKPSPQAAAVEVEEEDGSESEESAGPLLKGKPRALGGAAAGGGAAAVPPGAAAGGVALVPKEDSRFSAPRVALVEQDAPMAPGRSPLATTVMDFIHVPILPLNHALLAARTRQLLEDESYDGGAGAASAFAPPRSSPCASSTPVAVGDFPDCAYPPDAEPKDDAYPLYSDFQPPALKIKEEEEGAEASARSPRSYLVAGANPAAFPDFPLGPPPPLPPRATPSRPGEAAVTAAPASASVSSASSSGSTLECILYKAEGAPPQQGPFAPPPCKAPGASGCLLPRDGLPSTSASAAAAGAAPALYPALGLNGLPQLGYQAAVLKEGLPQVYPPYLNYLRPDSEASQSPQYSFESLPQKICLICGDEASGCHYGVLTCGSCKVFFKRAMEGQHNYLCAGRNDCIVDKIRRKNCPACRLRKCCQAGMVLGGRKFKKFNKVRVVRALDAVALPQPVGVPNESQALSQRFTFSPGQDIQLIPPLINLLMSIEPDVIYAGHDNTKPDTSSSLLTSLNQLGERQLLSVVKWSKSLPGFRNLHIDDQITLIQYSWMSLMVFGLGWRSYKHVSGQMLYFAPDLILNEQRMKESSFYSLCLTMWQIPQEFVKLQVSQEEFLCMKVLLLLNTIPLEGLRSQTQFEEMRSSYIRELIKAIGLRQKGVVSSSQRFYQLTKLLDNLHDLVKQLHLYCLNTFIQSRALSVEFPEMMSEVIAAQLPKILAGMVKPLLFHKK
T3 sequence (P08588 whole entry): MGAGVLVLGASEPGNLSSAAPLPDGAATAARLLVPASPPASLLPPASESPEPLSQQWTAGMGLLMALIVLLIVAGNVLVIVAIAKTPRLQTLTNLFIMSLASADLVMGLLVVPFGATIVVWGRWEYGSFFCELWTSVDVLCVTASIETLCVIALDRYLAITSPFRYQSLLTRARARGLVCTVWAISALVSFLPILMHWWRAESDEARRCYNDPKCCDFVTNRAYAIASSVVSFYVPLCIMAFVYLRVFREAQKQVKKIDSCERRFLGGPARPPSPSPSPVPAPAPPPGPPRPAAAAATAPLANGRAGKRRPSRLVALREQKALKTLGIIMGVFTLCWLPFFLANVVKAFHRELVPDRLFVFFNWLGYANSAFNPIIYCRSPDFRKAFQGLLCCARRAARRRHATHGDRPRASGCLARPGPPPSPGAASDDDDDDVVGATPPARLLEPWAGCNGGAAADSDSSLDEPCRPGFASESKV
T8 sequence (P35367 whole entry): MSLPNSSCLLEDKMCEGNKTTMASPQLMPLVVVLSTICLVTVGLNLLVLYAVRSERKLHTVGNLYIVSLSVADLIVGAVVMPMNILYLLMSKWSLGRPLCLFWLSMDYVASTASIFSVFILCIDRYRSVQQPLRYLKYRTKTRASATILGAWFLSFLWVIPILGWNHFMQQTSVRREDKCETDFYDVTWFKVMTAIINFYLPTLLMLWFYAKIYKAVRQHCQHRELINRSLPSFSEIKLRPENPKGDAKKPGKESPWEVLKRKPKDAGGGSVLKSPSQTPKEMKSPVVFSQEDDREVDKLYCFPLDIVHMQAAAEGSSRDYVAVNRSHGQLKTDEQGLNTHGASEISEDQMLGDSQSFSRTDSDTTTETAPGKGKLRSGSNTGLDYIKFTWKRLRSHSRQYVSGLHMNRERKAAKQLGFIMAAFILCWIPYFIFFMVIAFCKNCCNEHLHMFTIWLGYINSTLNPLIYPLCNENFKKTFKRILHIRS
T10 sequence (Q01726 whole entry): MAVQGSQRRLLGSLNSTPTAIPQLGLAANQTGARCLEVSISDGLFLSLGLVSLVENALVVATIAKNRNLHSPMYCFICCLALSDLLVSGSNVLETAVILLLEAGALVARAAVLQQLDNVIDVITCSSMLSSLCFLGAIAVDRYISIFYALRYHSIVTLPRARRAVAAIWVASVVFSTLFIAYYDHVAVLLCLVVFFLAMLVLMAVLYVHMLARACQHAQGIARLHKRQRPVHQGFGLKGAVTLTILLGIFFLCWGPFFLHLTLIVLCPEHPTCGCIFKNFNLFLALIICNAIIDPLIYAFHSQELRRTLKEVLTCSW
T9 sequence (P12530 whole entry): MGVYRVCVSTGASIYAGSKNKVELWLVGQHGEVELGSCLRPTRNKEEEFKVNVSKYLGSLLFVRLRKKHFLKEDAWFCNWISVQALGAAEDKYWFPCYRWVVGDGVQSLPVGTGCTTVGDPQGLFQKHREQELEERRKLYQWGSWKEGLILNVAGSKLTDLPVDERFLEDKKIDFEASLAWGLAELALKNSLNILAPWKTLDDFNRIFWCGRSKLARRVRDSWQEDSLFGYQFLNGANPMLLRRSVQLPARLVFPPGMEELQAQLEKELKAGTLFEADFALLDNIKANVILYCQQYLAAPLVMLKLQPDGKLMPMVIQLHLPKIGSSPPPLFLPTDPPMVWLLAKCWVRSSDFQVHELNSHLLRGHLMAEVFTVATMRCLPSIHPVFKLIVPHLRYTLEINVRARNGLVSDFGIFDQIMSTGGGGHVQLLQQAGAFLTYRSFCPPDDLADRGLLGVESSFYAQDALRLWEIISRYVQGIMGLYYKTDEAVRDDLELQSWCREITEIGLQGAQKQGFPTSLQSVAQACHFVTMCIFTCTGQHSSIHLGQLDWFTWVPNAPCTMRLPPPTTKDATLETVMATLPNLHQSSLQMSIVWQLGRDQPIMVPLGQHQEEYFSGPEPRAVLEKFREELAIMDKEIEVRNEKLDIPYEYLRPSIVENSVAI
T6 sequence (P48146 whole entry): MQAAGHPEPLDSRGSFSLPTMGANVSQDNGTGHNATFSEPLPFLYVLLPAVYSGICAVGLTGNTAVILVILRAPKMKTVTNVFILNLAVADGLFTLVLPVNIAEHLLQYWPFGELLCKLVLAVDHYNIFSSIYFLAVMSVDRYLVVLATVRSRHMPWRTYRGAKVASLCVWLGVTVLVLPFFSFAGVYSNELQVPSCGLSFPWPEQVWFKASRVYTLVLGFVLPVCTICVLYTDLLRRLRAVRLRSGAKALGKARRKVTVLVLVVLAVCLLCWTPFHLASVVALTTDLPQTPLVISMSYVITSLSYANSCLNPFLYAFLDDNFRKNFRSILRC
T5 sequence (P46663 whole entry): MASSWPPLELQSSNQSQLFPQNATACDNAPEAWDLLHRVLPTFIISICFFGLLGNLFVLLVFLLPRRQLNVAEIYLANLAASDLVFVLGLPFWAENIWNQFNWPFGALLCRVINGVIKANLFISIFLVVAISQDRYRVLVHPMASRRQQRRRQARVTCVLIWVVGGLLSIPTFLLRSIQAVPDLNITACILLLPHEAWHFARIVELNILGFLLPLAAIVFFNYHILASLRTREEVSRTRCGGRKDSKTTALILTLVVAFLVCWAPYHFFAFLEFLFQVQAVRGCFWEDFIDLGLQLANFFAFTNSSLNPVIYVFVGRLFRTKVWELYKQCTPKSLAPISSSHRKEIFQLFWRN
T2 sequence (P15823 whole entry): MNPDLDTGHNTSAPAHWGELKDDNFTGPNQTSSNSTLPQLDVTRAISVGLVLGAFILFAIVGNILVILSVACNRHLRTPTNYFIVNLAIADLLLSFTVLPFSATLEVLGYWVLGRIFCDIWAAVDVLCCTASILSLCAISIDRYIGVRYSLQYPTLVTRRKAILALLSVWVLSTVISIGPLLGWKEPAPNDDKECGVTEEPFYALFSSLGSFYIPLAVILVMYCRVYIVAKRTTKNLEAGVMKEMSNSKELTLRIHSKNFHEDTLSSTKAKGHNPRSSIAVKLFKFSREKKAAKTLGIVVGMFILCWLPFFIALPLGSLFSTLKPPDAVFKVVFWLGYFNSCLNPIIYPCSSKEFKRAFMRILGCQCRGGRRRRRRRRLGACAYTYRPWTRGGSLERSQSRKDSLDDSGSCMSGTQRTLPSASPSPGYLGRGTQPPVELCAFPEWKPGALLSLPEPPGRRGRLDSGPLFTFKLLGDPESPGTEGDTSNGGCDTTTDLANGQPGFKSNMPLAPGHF
T13 sequence (P35346 whole entry): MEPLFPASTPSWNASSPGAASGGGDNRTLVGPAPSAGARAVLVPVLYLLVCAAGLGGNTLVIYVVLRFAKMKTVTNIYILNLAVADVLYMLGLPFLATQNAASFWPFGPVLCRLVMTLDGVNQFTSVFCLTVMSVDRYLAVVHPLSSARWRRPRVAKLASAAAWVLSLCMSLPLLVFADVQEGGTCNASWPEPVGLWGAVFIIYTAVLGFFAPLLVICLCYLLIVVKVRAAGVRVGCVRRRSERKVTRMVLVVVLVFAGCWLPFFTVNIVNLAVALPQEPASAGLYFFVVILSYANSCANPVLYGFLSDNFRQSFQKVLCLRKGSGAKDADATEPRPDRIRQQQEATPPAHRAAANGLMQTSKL
T4 sequence (P32247 whole entry): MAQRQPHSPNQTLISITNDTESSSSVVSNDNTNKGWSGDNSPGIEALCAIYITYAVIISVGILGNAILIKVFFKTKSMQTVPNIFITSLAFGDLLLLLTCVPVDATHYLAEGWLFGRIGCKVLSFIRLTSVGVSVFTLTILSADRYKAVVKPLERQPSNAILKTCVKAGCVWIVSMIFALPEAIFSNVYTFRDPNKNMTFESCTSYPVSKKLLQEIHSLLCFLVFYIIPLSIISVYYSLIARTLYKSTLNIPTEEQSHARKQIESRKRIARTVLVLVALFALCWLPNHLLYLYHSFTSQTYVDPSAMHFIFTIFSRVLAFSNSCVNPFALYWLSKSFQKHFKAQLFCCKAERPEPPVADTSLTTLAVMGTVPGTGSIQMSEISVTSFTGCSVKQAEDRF

## OC[C@H]1O[C@@H](n2cnc3c(NCc4ccc(O)cc4)ncnc32)[C@H](O)[C@@H]1O [T1-11, N ^6-(4-hydroxybenzyl)adenine riboside]
A3 adenosine receptor; 10 μM T1-11, n 2
  inhibition at 10 µM: 103%
A3 adenosine receptor; [7]
  IC50: 110 nM
  Ki: 100 nM
[1]
  % Inhibition: -3%
Adrenergic α 1B
  inhibition at 10 µM: 3%
Adrenergic β 1
  inhibition at 10 µM: 7%
Bombesin BB3
  inhibition at 10 µM: 12%
Bradykinin B1
  inhibition at 10 µM: -8%
[2]
  inhibition at 10 µM: 15%
[3]
  % Inhibition: 6%
[4]
  % Inhibition: 1%
GABAB1B
  inhibition at 10 µM: -5%
Histamine H1
  inhibition at 10 µM: 1%
Lipoxygenase 15-LO
  inhibition at 10 µM: 14%
Melanocortin MC1
  inhibition at 10 µM: 3%
Melanocortin MC3
  inhibition at 10 µM: 3%
[5]
  % Inhibition: 12%
Phorbol Ester
  % Inhibition: 9%
Phosphodiesterase PDE1
  % Inhibition: 17%
Potassium Channel [KA]
  % Inhibition: 1%
Progesterone PR-B
  inhibition at 10 µM: -8%
Somatostatin sst5
  inhibition at 10 µM: 4%
[6]
  % Inhibition: -4%
R6/2 mice; 0.05 mg/ml in drinking water from the age of 7 weeks
  Motor coordination (rotarod performance): counteracted the progressive deterioration in motor coordination
R6/2 mice; subcutaneous Alzet minipump, 125 µg/mouse/day
  Motor deterioration (rotarod performance): improved motor deterioration
BDNF
  Cortical BDNF: contained more cortical BDNF than R6/2 mice that received no treatment

Reference: publication PMC3119665, “A New Drug Design Targeting the Adenosinergic System for Huntington's Disease” (PLoS ONE, 2011)
